The target in data set [1] is EGFR kinase (Homo sapiens (Human), UniProt P00533). Put plainly: EGFR Kinase Activity Assay (Time-Resolved fluorescence). It counts as biochemical. Particulars: human-derived recombinant EGFR kinase, 20 μM ATP, 25° C., 45 minutes; read-out: IC50 (EGFR/BIO). The method, then:
The in vitro EGFR kinase activity was tested by the following assay.
The following assay may be used to determine the activity of the compounds of the invention for inhibiting EGFR kinase activity. […] EGFR kinase used in this assay is a human-derived recombinant protein (Cell signaling technology, #7908), which was reacted with peptide substrate and different concentrations of tested compounds in a buffer solution containing 60 mM HEPES (pH7.5), 5 mM MgCl2, 5 mM MnCl2, 3 μM Na3VO4, […] (1000×) and 20 μM ATP at 25° C., for 45 minutes. The EGFR kinase activity was determined by using a Time-Resolved fluorescence method.

For data set [2], the system named is human epidermoid carcinoma A431 cells. Put plainly: EGFR Cell Proliferation Inhibition Assay (SRB method, 72 hours). It counts as cell-based. Particulars: A-431. The source says:
The activity is represented by the IC50 value. The general procedures of the assay are given as follows: The cancer cells A431 that highly expressing EGFR (Institute of biochemistry and cell biology) were chosen and seeded to 96-well cell culture plate at a suitable concentration (e.g., 5000 cells/mL medium). […] Then, the cell culture medium was replaced by fresh one with tested compounds added in it at serial concentrations (general 6 to 7 concentrations). Then the cells were put back to the incubator and cultured continuously. 72 hours later, the activity of the tested compounds for inhibiting the cell proliferation was determined by using Sulforhodamine B (SRB) method. IC50 value on tested cells are calculated by the data of inhibition rates of serial concentrations of the tested compounds.

Data set [3] relates to xenografts of Calu-3 human lung cancer. Put plainly: Therapeutic effects against xenografts of Calu-3 human lung cancer in nude mice. The format is in vivo, BALB/cA-nude mice. The settings on record: for tolerance of the mice: present administration protocol. How it is done: BALB/cA-nude mice, 6 to 7 weeks old, ♀, purchased from Slaccas Experimental Animal LTD., CO.
Nude mice were hypodermic inoculated Calu-3 human lung cancer cell. After tumors grew to 150-250 mm^3, mice were randomly divided into teams (d0).
The volume of tumors and the weigh of the mice were measured and recorded for 2-3 times per week.
The calculation formula of the volume of tumor (V) is: V=½×a×b^2, a: length of tumor, b: width of tumor.

A short description of data set [4]: Pharmacokinetics Assay in rats, intragastric administration, LC/MS/MS. The settings on record: both sexes, rat, plasma, po, SD rats, 25 mg/kg; for Vd/F: read-out: Apparent Distribution Volume Vz/F; for CL/F: read-out: Clearance CL/F (converted); for half-life: read-out: Half-Life t½ (converted); for Cmax: read-out: Plasma Conc. Cmax. The format is in vivo. How it is done:
The pharmacokinetic behavior of the compounds of the present invention was studied and evaluated in rats. 8 healthy adult SD rats, male and female in half, were purchased from SINO-BRITSH SIPPR/BK LAB. ANIMAL LTD., CO, License number: SCXK (Shanghai) 2003-0002 The right amount of compounds were weighted and grinded with 0.5% Sodium Carboxymethyl cellulose uniformly, suspended them with 1% tween 80 to 2.5 mg/mL of suspension before use. […] 8 Healthy adult adult SD rats, male and female in half, were divided into 2 groups. After an overnight fast, the rats were administered intragastrically at a dose of 25.0 mg/kg. […] The plasma samples were stored at −20° C. until analysis. The rats were fed 2 hours after administration. 50 μL of rat plasmas taken at various time points after administration were mixed with 50 μL of standard series solution to obtain plasma concentration of 50.0, 100, 200, 500, 1000, 2000, 5000 ng/mL. 150 μL methanol was added and then the mixture was mixed for 3 minute using a vortexer and centrifuged for 10 minutes at 13,500 rpm. 10 μL of the supernatant was analyzed by LC-MS/MS. The main pharmacokinetic parameters were caculated by DAS 2.0 software.

Setting [5] is: high dose (200 mg/kg), Calu-3 xenografts.
[6] abbreviates: low dose (100 mg/kg), Calu-3 xenografts.

These results are taken from US8901140B2, “6-amino quinazoline or 3-cyano quinoline derivatives, preparation methods and pharmaceutical uses thereof” (Jiangsu Hengrui Medicine Co., Ltd., priority 2009, dated 2014).

Usually half-life stands for how long it takes for the measured level to halve. As a reminder, the Cmax is the highest concentration seen after dosing. The MRT is a mean duration of stay, worked out from the concentration-time curve.

The structures appear in SMILES notation.

EGFR kinase, sequence (P00533 25-1210): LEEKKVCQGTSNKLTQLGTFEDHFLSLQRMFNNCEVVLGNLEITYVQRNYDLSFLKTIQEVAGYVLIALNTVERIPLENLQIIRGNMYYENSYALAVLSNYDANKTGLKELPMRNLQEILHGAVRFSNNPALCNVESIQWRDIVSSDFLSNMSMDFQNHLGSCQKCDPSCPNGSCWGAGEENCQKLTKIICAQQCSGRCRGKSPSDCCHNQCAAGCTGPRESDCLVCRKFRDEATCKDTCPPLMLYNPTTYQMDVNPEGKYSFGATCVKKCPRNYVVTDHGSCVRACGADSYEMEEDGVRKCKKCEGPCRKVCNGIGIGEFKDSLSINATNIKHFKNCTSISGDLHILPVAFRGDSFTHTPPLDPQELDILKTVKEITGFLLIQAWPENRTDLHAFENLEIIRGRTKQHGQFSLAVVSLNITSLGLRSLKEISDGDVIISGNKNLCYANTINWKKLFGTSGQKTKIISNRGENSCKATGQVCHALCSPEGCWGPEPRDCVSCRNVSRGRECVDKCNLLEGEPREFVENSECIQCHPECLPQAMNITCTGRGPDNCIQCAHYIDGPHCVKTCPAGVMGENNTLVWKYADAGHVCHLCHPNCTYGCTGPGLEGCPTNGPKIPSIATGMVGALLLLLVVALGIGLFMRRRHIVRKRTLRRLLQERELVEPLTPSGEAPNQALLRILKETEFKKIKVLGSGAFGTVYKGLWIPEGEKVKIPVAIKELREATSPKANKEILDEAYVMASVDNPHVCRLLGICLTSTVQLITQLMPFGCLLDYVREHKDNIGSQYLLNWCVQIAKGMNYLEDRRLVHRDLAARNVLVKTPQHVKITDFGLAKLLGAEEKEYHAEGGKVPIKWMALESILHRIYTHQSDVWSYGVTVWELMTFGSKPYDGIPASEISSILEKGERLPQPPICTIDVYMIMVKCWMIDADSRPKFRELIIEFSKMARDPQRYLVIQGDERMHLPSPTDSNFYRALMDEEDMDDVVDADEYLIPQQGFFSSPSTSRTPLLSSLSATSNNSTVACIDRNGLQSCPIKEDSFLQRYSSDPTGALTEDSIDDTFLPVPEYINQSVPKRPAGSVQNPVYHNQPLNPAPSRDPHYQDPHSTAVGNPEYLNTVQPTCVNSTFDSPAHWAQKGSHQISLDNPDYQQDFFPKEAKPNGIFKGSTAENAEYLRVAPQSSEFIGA

In the case of `CCOc1cc2ncnc(Nc3ccc(F)c(Cl)c3)c2cc1NC(=O)/C=C/[C@H]1CCCN1C` [Example 9, (E)-N-[4-[(3-Chloro-4-fluoro-phenyl)amino]-7-ethoxy-quinazolin-6-yl]-3-[(2R)-1-methylpyrrolidin-2-yl]prop-2-enamide], the results for the IC50 in data set [1] and in data set [2] were 2 nM and 8 nM, respectively.
For `CCOc1cc2ncnc(Nc3ccc(F)c(Cl)c3)c2cc1NC(=O)/C=C/[C@@H]1CCCN1C` [Example 7, (E)-N-[4-[(3-Chloro-4-fluoro-phenyl)amino]-7-ethoxy-quinazolin-6-yl]-3-[(2S)-1-methylpyrrolidin-2-yl]prop-2-enamide], in data set [1], the IC50 stood at 4 nM.
For the compound `CCOc1cc2ncc(C#N)c(Nc3ccc(OCc4ccccn4)c(Cl)c3)c2cc1NC(=O)/C=C/[C@H]1CCCN1C` [Example 5, (E)-N-[4-[[3-Chloro-4-(2-pyridylmethoxy)phenyl]amino]-3-cyano-7-ethoxy-6-quinolyl]-3-[(2R)-1-methylpyrrolidin-2-yl]prop-2-enamide], in data set [3] (setting [5]), the “reduced tumor volume (fraction of tumors)” value is 4/6. Further, the “reduced tumor volume (fraction of tumors)” value in data set [3] (setting [6]) is 3/6. For the same compound, in data set [3], the “tolerance of the mice” value is “well tolerant”. Besides, in data set [4], the Vd/F worked out at 2.6 ± 0.94 L/kg, the CL/F is 8.83 mL/min/kg, the half-life is 3.4 ± 0.45 h and the highest concentration (Cmax) was determined as 6470 ± 1810 ng/mL.
As for `CCOc1cc2ncc(C#N)c(Nc3ccc(OCc4ccccn4)c(Cl)c3)c2cc1NC(=O)/C=C/[C@@H]1C[C@@H](O)CN1C` [Example 3, (E)-N-[4-[[3-Chloro-4-(2-pyridylmethoxy)phenyl]amino]-3-cyano-7-ethoxy-6-quinolyl]-3-[(2S,4R)-4-hydroxy-1-methyl-pyrrolidin-2-yl]prop-2-enamide], the IC50 in data set [1] stood at 59 nM; in data set [2], 36 nM.
On to `CCOc1cc2ncc(C#N)c(Nc3ccc(OCc4ccccn4)c(Cl)c3)c2cc1NC(=O)/C=C/[C@@H]1CCCN1C` [Example 1, (E)-N-[4-[[3-Chloro-4-(2-pyridylmethoxy)phenyl]amino]-3-cyano-7-ethoxy-6-quinolyl]-3-[(2S)-1-methylpyrrolidin-2-yl]prop-2-enamide], for which, in data set [3] (Calu-3 xenografts), the “inhibition of the growth of Calu-3 human lung cancer (in words)” value is recorded as “markedly inhibited”. Moreover, in data set [3] (setting [5]), the “completely degraded tumor (fraction of tumors)” value was 1/6 and the “reduced tumor volume (fraction of tumors)” value was 1/6. Also, the “reduced tumor volume (fraction of tumors)” value in data set [3] (setting [6]) is listed as 2/6. Besides, the “tolerance of the mice” value in data set [3] is listed as “well tolerant”. Also, in data set [4], the Vd/F was 3.71 ± 1.68 L/kg, the CL/F is 12.7 mL/min/kg, the half-life is 4.04 ± 1.39 h and the Cmax amounted to 4480 ± 1880 ng/mL. Besides, the mean residence time MRT in data set [4] (read-out: Mean Residence Time MRT) came out at 7.78 ± 1.89 h.
`CCOc1cc2ncc(C#N)c(Nc3ccc(OCc4ccccn4)c(Cl)c3)c2cc1NC(=O)/C=C/[C@@H]1CCCN1` [Example 2, (E)-N-[4-[[3-Chloro-4-(2-pyridylmethoxy)phenyl]amino]-3-cyano-7-ethoxy-6-quinolyl]-3-[(2S)-pyrrolidin-2-yl]prop-2-enamide]: the IC50 was determined as 6 nM in data set [1] and 3 nM in data set [2].
